Activity calls are given as the source filed them.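 How the source made its calls: active means compounds giving half or more protection of infected cells from virus-caused growth loss, again on retest; inactive means the rest.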 Where a SMILES comes first, the peptide text is derived from it.
Test system: CEM cells HIV-1 protection, formazan growth assay
Test: NCI AIDS Antiviral Assay
Conditions: for IC50: measured here: growth of uninfected CEM cells
How it was run: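 Steps: treat uninfected and HIV-1-infected human CEM cells at five drug levels; quantify growth by soluble formazan; retest any compound reaching 50% protection; classify actives from the retest.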

SMILES | EC50 [µM] | IC50 [µM] | outcome
Cc1ccc(NC(=O)CCc2cc(C(C)(C)C)nc(=S)[nH]2)cc1C | > 724 | 398 | 
CCCCOC(=O)NC(Nc1cccc(C(F)(F)F)c1)(C(F)(F)F)C(F)(F)F | > 200 | 50.1 | 
CCSc1c2ccccc2nc2c(OC)ccc(OC)c12 |  |  | inactive
COC(=O)C1CC(C(=O)OC)c2nc3cc(C)ccc3nc21 (stereo not drawn) | > 437 | > 437 | 
CCOC(=O)/C(=C\c1cccc([N+](=O)[O-])c1)[Se]c1ccccc1 | > 26.3 | 10.7 | 
O=C(NC1C=Nc2ccccc2NC1=O)c1ccc(Cl)cc1 (stereo not drawn) | > 200 | > 200 | 
O=C1CCCC(=O)NNC(=O)NCCCCCCNC(=O)NN1 | > 30.2 | > 30.2 | 
CCOC(=O)c1ccc(N2N=C3C(=CC(=O)c4ccccc43)SCC2=O)cc1 | > 47.9 | 19.5 | 
CC1=NC=C(O)c2ccccc2O1 | > 40.7 | > 40.7 | 
COC(=O)C1=C(C(=O)OC)C(C(=O)OC)N2C=CC=CC2=C1C(=O)OC (stereo not drawn) | > 200 | > 200 | 
Cc1cn(C2CCC(COP(=O)(OCC(=O)c3ccccc3)OCC(=O)c3ccccc3)O2)c(=O)[nH]c1=O (stereo not drawn) | 19.5 | > 200 | 
Nc1c(N=Nc2ccc([N+](=O)[O-])cc2)c(S(=O)(=O)O)cc2cc(S(=O)(=O)O)c(N=Nc3ccc(-c4ccc(N=Nc5ccc(O)cc5)cc4)cc3)c(O)c12 | > 100 | 15.1 | 
Nc1ccc(C2=N/C(=C\c3cccc(N)c3)C(=O)O2)cc1 |  |  | inactive
Cc1ccc(SC23C=CC(CC24CCOC4=O)OC3=O)cc1 (stereo not drawn) | > 200 | > 200 | 
CC1(c2ccccc2)CCCC/C1=N/NC(N)=O (stereo not drawn) | 105 | 129 | 
O=C1c2c(nc3ccccc3c2-c2ccccc2)CN1Nc1ccccc1 | > 87.1 | > 87.1 | 
O=C(O)c1cc2cc([N+](=O)[O-])ccc2oc1=O | > 447 | > 447 | 
CCOC1=NC(C(F)(F)F)(C(F)(F)F)N=C(N2CCCCC2)O1 | > 200 | 97.7 | 
O=C(Nc1ccc(C2=NCCN2)cc1)c1ccc(C(=O)Nc2ccc(C3=NCCN3)cc2)c(O)c1 | 55 | 91.2 | 
CC(C)(/C=N\O)NO | > 200 | > 200 | 
O=C1c2cccc([N+](=O)[O-])c2C(=O)c2c1oc1ccc3ccccc3c21 | > 200 | > 200 | 
O=c1[nH]nc2ccc(n[nH]c1=O)c1ccccc21 | > 200 | 7.41 | 

SMILES | EC50 [µM] | IC50 [µM] | outcome
Cc1ccc(/C=C/C(=N/NC(=O)N/N=C(/C=C/c2ccc(C)cc2)C(C)C)C(C)C)cc1 | > 100 | > 100 | 
O=S1CSCS1 (stereo not drawn) | > 200 | > 200 | 
CC(C)=CC1CC(n2cc(C)c(=O)[nH]c2=O)ON1CCO[Si](C)(C)C(C)(C)C (stereo not drawn) |  |  | inactive
N#CC(C#N)=Cn1c(=S)[nH]c2ccccc21 | > 200 | > 200 | 
O=C(O)c1ccc2c(c1)CC1(C2)Cc2cc3c(cc2C1=O)CCC3 (stereo not drawn) | > 200 | 85.1 | 
CC(NC(=O)C(C)NC(=O)C(CC(N)=O)NC(=O)CN)C(=O)NC(CO)C(=O)NC(C)C(=O)NC(CCCN=C(N)N)C(N)=O (stereo not drawn) (H-GNAASAR-NH2; configuration not given here) |  |  | inactive
Clc1ccc2c(c1)C1C(CO2)C(c2ccccc2)=NN1c1ccccc1 (stereo not drawn) | > 27.5 | > 27.5 | 
N=C(N)N=Nc1cc(O)c(NN=C(N)N)cc1O | > 200 | 110 | 
CCOc1cccc2ccc[n+](CC)c12 | > 251 | 25.1 | 
CC(=O)Oc1c(OC(C)=O)c(C=O)c2c(OC(C)=O)c(-c3c(C)cc4c(C(C)C)c(OC(C)=O)c(OC(C)=O)c(C=O)c4c3OC(C)=O)c(C)cc2c1C(C)C | > 200 | 8.91 | 
Clc1ccc2c(NCCCCN=Cc3ccccc3)ccnc2c1 | > 200 | 26.9 | 
CC(=O)Nc1nc(Cl)c2ncn(C3CCCO3)c2n1 (stereo not drawn) | > 200 | 22.4 | 
CCOC(=O)/C(=C/c1ccc(OC)cc1)C(=O)c1ccccc1 | > 17 | > 17 | 
N#CSCc1ccc(Cl)cc1 | > 28.2 | 16.2 | 
O=C1c2ccccc2C(=O)C2C1C1C(=O)c3ccccc3C(=O)C21 (stereo not drawn) |  |  | inactive
COc1ccc2nc3cc(Cl)ccc3c(Sc3ccc(NC(C)=O)cc3)c2c1 | > 12.6 | > 12.6 | 
NC(=S)N/N=C(\C(=O)Nc1cccc([N+](=O)[O-])c1)c1nc2ccc([N+](=O)[O-])cc2[nH]c1=O | > 288 | 95.5 | 
CCCCCCCCCCCC(=O)OCCOCCOCCOCCOCCOCc1ccccc1 |  |  | inactive
Cc1nc2ccccc2c(=O)n1NC(=O)Cc1ccccc1 | > 200 | > 200 | 
COC(c1cccc(C(O)(C(F)(F)F)C(F)(F)F)c1)(C(F)(F)F)C(F)(F)F |  |  | inactive
Cc1ccc(S(=O)(=O)/C(C#N)=C/NS(=S)c2ccncc2)cc1 (stereo not drawn) |  |  | inactive
O=[N+]([O-])C(Cl)C(Cl)c1ccc(Cl)cc1 (stereo not drawn) | > 200 | 7.41 | 

SMILES | EC50 [µM] | IC50 [µM] | outcome
COc1cc2c(cc1OC)CN1CCc3cc(OC)c(OC)cc3[C@@H]1C2 | > 200 | 145 | 
Oc1ccccc1C=Nc1ccc(SSc2ccc(N=Cc3ccccc3O)cc2)cc1 | > 200 | 27.5 | 
O=C(N/N=C(/c1ccccc1)C(F)(F)F)c1ccncc1 | > 200 | > 200 | 
Cc1ccc(NC(=O)OCC(COc2ccc(Cl)cc2Cl)OC(=O)Nc2ccc(C)cc2)cc1 (stereo not drawn) | > 2.88 | > 2.88 | 
CCCCCCCCCC1C(C)c2c([nH]c3ccccc23)C2C(=O)N(c3ccccc3)C(=O)C21 (stereo not drawn) |  |  | inactive
Clc1ccc(-c2nc3ccc(C45CC6CC(CC(C6)C4)C5)cc3[nH]2)cc1 | > 100 | > 100 | 
CCOC(=O)/C(=C\c1ccc(F)cc1)P(=O)(OCC)OCC | > 759 | 15.1 | 
CCn1c(O)c(C=Nc2ccccc2)s/c1=N/Nc1nc(-c2ccc(O)c(O)c2)cs1 | > 200 | 14.1 | 
CN(C)CC1CCCC/C1=N/O (stereo not drawn) |  |  | inactive
NC(=O)CC[C@H]1C(=O)N=C(N)N1C(=O)OCc1ccccc1 | > 200 | > 200 | 
Oc1ccc(Cl)cc1C1=NC(/N=C\c2ccccc2)=NC(c2ccccc2)C1 (stereo not drawn) | > 200 | 8.91 | 
O=S(=O)(c1ccccn1)c1nc2ccccc2s1 |  |  | inactive
COC(=O)C1C2C=CC(C2)N1S(=O)(=O)c1ccccc1 (stereo not drawn) | > 200 | > 200 | 
COC1=Nc2ccccc2S(=O)(=O)C=C1 | > 398 | 0.813 | 
CCOC(=O)c1[nH]n(-c2ccccc2)c(=O)c1C=NC(C)=S | > 200 | > 100 | 
S=c1sc2c(Cl)ncnc2n1-c1ccccc1 | > 67.6 | 3.63 | 
CCOC(=O)CC1(c2ccccc2)OC(=O)c2ccccc21 (stereo not drawn) |  |  | inactive
Cc1ccccc1-c1c(N)nc(N)nc1C(=O)Nc1nccs1 | > 41.7 | > 41.7 | 
Cc1cc(NC(=O)Nc2cc(F)ccc2F)no1 | > 200 | 123 | 
OCC(O)CC[CH2][Sn]([c]1ccccc1)([c]1ccccc1)[c]1ccccc1 (stereo not drawn) |  |  | inactive
CC(C)C(=O)NC(=S)Nc1ccc([N+](=O)[O-])cc1C#N | > 123 | > 123 | 
CCOC12OC3=C(CC1CC1=C(CCC1=O)O2)C(=O)CC3 (stereo not drawn) |  |  | inactive

— PubChem BioAssay AID179 (DTP/NCI, 2004)
